According to PubChem BioAssay (NCI):
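Results reflect a 48-hour exposure of cells in 96-well plates to compound at five concentrations. The concentration for 50% growth inhibition is given as GI50. TGI denotes the concentration required for complete inhibition of growth.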 *1 amine or outer side, *2 acyl side, *3 side chain or, on linkers, in order; H or OH if unused. Where a SMILES comes first, the peptide text is derived from it. Bridges are numbered along the chain shown (N, C = ends). Roman numbers before positions name the chains, in order. [ ]: non-standard residue; d: D form. Actinocin(9to1) = Cc1c2oc3c(C)ccc(C(=O)[*:1])c3nc-2c(C(=O)[*:2])c(N)c1=O; NMeV = CN[CH](C(=O)O)C(C)C; Sar = CNCC(=O)O

Legend:
Experiment in all cases: NCI-60 cell line screen, 48 h
U251 CNS = test system: U251 CNS
A498 renal = test system: A498 renal
DU-145 prostate = test system: DU-145 prostate
MOLT-4 leukemia = test system: MOLT-4 leukemia
PC-3 prostate = test system: PC-3 prostate
RPMI-8226 leukemia = test system: RPMI-8226 leukemia
NCI-H226 lung = test system: NCI-H226 lung
SR leukemia = test system: SR leukemia
EKVX NSCLC = test system: EKVX NSCLC
RXF 393 renal = test system: RXF 393 renal
HOP-92 NSCLC = test system: HOP-92 NSCLC
SF-295 CNS = test system: SF-295 CNS
SK-MEL-2 melanoma = test system: SK-MEL-2 melanoma
K-562 leukemia = test system: K-562 leukemia
CCRF-CEM leukemia = test system: CCRF-CEM leukemia
OVCAR-4 ovarian = test system: OVCAR-4 ovarian
MDA-MB-231 breast = test system: MDA-MB-231 breast
OVCAR-8 ovarian = test system: OVCAR-8 ovarian
M14 melanoma = test system: M14 melanoma
OVCAR-5 ovarian = test system: OVCAR-5 ovarian
SW-620 colon = test system: SW-620 colon
SK-MEL-5 melanoma = test system: SK-MEL-5 melanoma
BT-549 breast = test system: BT-549 breast
HS 578T breast = test system: HS 578T breast
NCI-H460 lung = test system: NCI-H460 lung
UO-31 renal = test system: UO-31 renal
HCT-15 colon = test system: HCT-15 colon
LOX IMVI melanoma = test system: LOX IMVI melanoma
MDA-MB-435 = test system: MDA-MB-435
UACC-257 melanoma = test system: UACC-257 melanoma
SF-539 CNS = test system: SF-539 CNS
HCT-116 colon = test system: HCT-116 colon
NCI-H23 lung = test system: NCI-H23 lung
T-47D breast = test system: T-47D breast
SN12C renal = test system: SN12C renal
NCI/ADR-RES ovarian = test system: NCI/ADR-RES ovarian
TK-10 renal = test system: TK-10 renal
HOP-62 NSCLC = test system: HOP-62 NSCLC
786-0 renal = test system: 786-0 renal
MCF7 breast = test system: MCF7 breast
UACC-62 melanoma = test system: UACC-62 melanoma
HT29 colon = test system: HT29 colon
MALME-3M melanoma = test system: MALME-3M melanoma
SNB-75 CNS = test system: SNB-75 CNS
IGROV1 ovarian = test system: IGROV1 ovarian
SK-OV-3 ovarian = test system: SK-OV-3 ovarian
HL-60(TB) leukemia = test system: HL-60(TB) leukemia
CAKI-1 renal = test system: CAKI-1 renal
SF-268 CNS = test system: SF-268 CNS
OVCAR-3 ovarian = test system: OVCAR-3 ovarian
SNB-19 CNS = test system: SNB-19 CNS
NCI-H522 lung = test system: NCI-H522 lung
ACHN renal = test system: ACHN renal
COLO 205 colon = test system: COLO 205 colon
KM12 colon = test system: KM12 colon
SK-MEL-28 melanoma = test system: SK-MEL-28 melanoma

Question: Which GI50 (U251 CNS) does the source give for `Cc1c2oc3c(C)ccc(C(=O)OC(C)C4NC(=O)C(C(C)C)N(C)C(=O)CN(C)C(=O)C5CCCN5C(=O)C(C(C)C)NC4=O)c3nc-2c(C(=O)OC(C)C2NC(=O)C(C(C)C)N(C)C(=O)CN(C)C(=O)C3CCCN3C(=O)C(C(C)C)NC2=O)c(N)c1=O` (stereo not drawn) (I: cyclo([Sar][NMeV]TVP) / II: cyclo([Sar][NMeV]TVP); linker I:3-II:3 via Actinocin(9to1); configuration not given here) here?
Answer: < 0.01 µM

Question: What about the GI50 (A498 renal) of the same molecule?
Answer: < 0.0107 µM

Question: And the TGI (A498 renal)?
Answer: 0.0294 µM

Question: What about the GI50 (DU-145 prostate) of the same molecule?
Answer: < 0.0107 µM

Question: And the TGI (DU-145 prostate)?
Answer: > 30.7 µM

Question: And the GI50 (MOLT-4 leukemia)?
Answer: < 0.01 µM

Question: What about the GI50 (PC-3 prostate) of the same molecule?
Answer: < 0.01 µM

Question: And the TGI (PC-3 prostate)?
Answer: 19.7 µM

Question: And the GI50 (RPMI-8226 leukemia)?
Answer: < 0.01 µM

Question: What about the TGI (RPMI-8226 leukemia) of the same molecule?
Answer: 0.0582 µM

Question: And the GI50 (NCI-H226 lung)?
Answer: < 0.01 µM

Question: And the TGI (NCI-H226 lung)?
Answer: 0.0335 µM

Question: What about the GI50 (SR leukemia) of the same molecule?
Answer: < 0.01 µM

Question: What about the TGI (SR leukemia) of the same molecule?
Answer: > 100 µM

Question: And the GI50 (EKVX NSCLC)?
Answer: 0.022 µM

Question: And the GI50 (RXF 393 renal)?
Answer: < 0.01 µM

Question: And the TGI (RXF 393 renal)?
Answer: 0.0185 µM

Question: What about the GI50 (HOP-92 NSCLC) of the same molecule?
Answer: < 0.01 µM

Question: And the TGI (HOP-92 NSCLC)?
Answer: 0.0989 µM

Question: And the GI50 (SF-295 CNS)?
Answer: < 0.01 µM

Question: And the TGI (SF-295 CNS)?
Answer: 1.53 µM

Question: And the GI50 (SK-MEL-2 melanoma)?
Answer: < 0.01 µM

Question: What about the TGI (SK-MEL-2 melanoma) of the same molecule?
Answer: < 0.0152 µM

Question: What about the GI50 (K-562 leukemia) of the same molecule?
Answer: < 0.01 µM

Question: What about the TGI (K-562 leukemia) of the same molecule?
Answer: > 100 µM

Question: And the GI50 (CCRF-CEM leukemia)?
Answer: < 0.0111 µM

Question: What about the TGI (CCRF-CEM leukemia) of the same molecule?
Answer: > 66.3 µM

Question: What about the GI50 (OVCAR-4 ovarian) of the same molecule?
Answer: 0.014 µM

Question: And the TGI (OVCAR-4 ovarian)?
Answer: 2.03 µM

Question: And the GI50 (MDA-MB-231 breast)?
Answer: 0.0152 µM

Question: What about the GI50 (OVCAR-8 ovarian) of the same molecule?
Answer: < 0.01 µM

Question: And the GI50 (M14 melanoma)?
Answer: 0.0117 µM

Question: What about the TGI (M14 melanoma) of the same molecule?
Answer: 0.0517 µM

Question: What about the GI50 (OVCAR-5 ovarian) of the same molecule?
Answer: 0.0114 µM

Question: And the TGI (OVCAR-5 ovarian)?
Answer: 21.6 µM

Question: And the GI50 (SW-620 colon)?
Answer: < 0.01 µM

Question: What about the TGI (SW-620 colon) of the same molecule?
Answer: 17.7 µM

Question: And the GI50 (SK-MEL-5 melanoma)?
Answer: < 0.01 µM

Question: What about the TGI (SK-MEL-5 melanoma) of the same molecule?
Answer: 0.0169 µM

Question: And the GI50 (BT-549 breast)?
Answer: < 0.01 µM

Question: And the TGI (BT-549 breast)?
Answer: 0.0363 µM

Question: And the GI50 (HS 578T breast)?
Answer: 0.0192 µM

Question: What about the GI50 (NCI-H460 lung) of the same molecule?
Answer: < 0.01 µM

Question: What about the TGI (NCI-H460 lung) of the same molecule?
Answer: > 32.7 µM

Question: And the GI50 (UO-31 renal)?
Answer: 0.0302 µM

Question: What about the TGI (UO-31 renal) of the same molecule?
Answer: 0.206 µM

Question: And the GI50 (HCT-15 colon)?
Answer: 0.0396 µM

Question: What about the TGI (HCT-15 colon) of the same molecule?
Answer: > 100 µM

Question: What about the GI50 (LOX IMVI melanoma) of the same molecule?
Answer: < 0.01 µM

Question: What about the TGI (LOX IMVI melanoma) of the same molecule?
Answer: > 35 µM

Question: What about the GI50 (MDA-MB-435) of the same molecule?
Answer: < 0.01 µM

Question: And the TGI (MDA-MB-435)?
Answer: 0.0247 µM

Question: And the GI50 (UACC-257 melanoma)?
Answer: < 0.01 µM

Question: What about the GI50 (SF-539 CNS) of the same molecule?
Answer: < 0.01 µM

Question: And the TGI (SF-539 CNS)?
Answer: 0.0656 µM

Question: And the GI50 (HCT-116 colon)?
Answer: < 0.01 µM

Question: And the TGI (HCT-116 colon)?
Answer: > 100 µM

Question: What about the GI50 (NCI-H23 lung) of the same molecule?
Answer: < 0.01 µM

Question: And the TGI (NCI-H23 lung)?
Answer: 0.0802 µM

Question: What about the GI50 (T-47D breast) of the same molecule?
Answer: < 0.01 µM

Question: What about the TGI (T-47D breast) of the same molecule?
Answer: > 100 µM

Question: What about the GI50 (SN12C renal) of the same molecule?
Answer: < 0.01 µM

Question: And the TGI (SN12C renal)?
Answer: > 100 µM

Question: What about the GI50 (NCI/ADR-RES ovarian) of the same molecule?
Answer: 0.541 µM

Question: What about the TGI (NCI/ADR-RES ovarian) of the same molecule?
Answer: > 100 µM

Question: And the GI50 (TK-10 renal)?
Answer: < 0.0127 µM

Question: And the TGI (TK-10 renal)?
Answer: 0.894 µM

Question: And the GI50 (HOP-62 NSCLC)?
Answer: < 0.01 µM

Question: What about the TGI (HOP-62 NSCLC) of the same molecule?
Answer: 0.0883 µM

Question: What about the GI50 (786-0 renal) of the same molecule?
Answer: < 0.01 µM

Question: And the TGI (786-0 renal)?
Answer: > 100 µM

Question: And the GI50 (MCF7 breast)?
Answer: < 0.01 µM

Question: What about the TGI (MCF7 breast) of the same molecule?
Answer: > 100 µM

Question: And the GI50 (UACC-62 melanoma)?
Answer: < 0.01 µM

Question: What about the TGI (UACC-62 melanoma) of the same molecule?
Answer: 0.0125 µM

Question: And the GI50 (HT29 colon)?
Answer: < 0.01 µM

Question: What about the GI50 (MALME-3M melanoma) of the same molecule?
Answer: < 0.01 µM

Question: And the TGI (MALME-3M melanoma)?
Answer: 0.0282 µM

Question: What about the GI50 (SNB-75 CNS) of the same molecule?
Answer: < 0.0109 µM

Question: What about the TGI (SNB-75 CNS) of the same molecule?
Answer: 0.039 µM

Question: What about the GI50 (IGROV1 ovarian) of the same molecule?
Answer: < 0.01 µM

Question: And the TGI (IGROV1 ovarian)?
Answer: 5.9 µM

Question: What about the GI50 (SK-OV-3 ovarian) of the same molecule?
Answer: 0.0192 µM

Question: And the TGI (SK-OV-3 ovarian)?
Answer: > 100 µM

Question: And the GI50 (HL-60(TB) leukemia)?
Answer: < 0.0165 µM

Question: And the TGI (HL-60(TB) leukemia)?
Answer: 0.212 µM

Question: What about the GI50 (CAKI-1 renal) of the same molecule?
Answer: 0.0596 µM

Question: And the GI50 (SF-268 CNS)?
Answer: < 0.01 µM

Question: What about the TGI (SF-268 CNS) of the same molecule?
Answer: 0.913 µM

Question: And the GI50 (OVCAR-3 ovarian)?
Answer: < 0.01 µM

Question: And the TGI (OVCAR-3 ovarian)?
Answer: 0.032 µM

Question: What about the GI50 (SNB-19 CNS) of the same molecule?
Answer: < 0.01 µM

Question: And the TGI (SNB-19 CNS)?
Answer: > 55.5 µM

Question: And the GI50 (NCI-H522 lung)?
Answer: < 0.01 µM

Question: And the TGI (NCI-H522 lung)?
Answer: < 0.0116 µM

Question: What about the GI50 (ACHN renal) of the same molecule?
Answer: < 0.01 µM

Question: And the TGI (ACHN renal)?
Answer: 4.39 µM

Question: And the GI50 (COLO 205 colon)?
Answer: < 0.01 µM

Question: What about the TGI (COLO 205 colon) of the same molecule?
Answer: 0.0163 µM

Question: What about the GI50 (KM12 colon) of the same molecule?
Answer: < 0.01 µM

Question: And the TGI (KM12 colon)?
Answer: 0.793 µM

Question: And the GI50 (SK-MEL-28 melanoma)?
Answer: < 0.01 µM

Question: And the TGI (SK-MEL-28 melanoma)?
Answer: 0.0307 µM
